From EP2970215B1, “PYRROLIDINE DERIVATIVES, PHARMACEUTICAL COMPOSITIONS CONTAINING THEM, AND THEIR USE IN THERAPY” (AbbVie Deutschland GmbH & Co. KG, priority 2013, dated 2014)

Biological target: T1, human GlyT1c transporter (Homo sapiens, UniProt P48067)
T1 construct: expressed in transfected cells; host or cells: CHO cells (recombinant; line hGlyT1c_5_CHO is named for the uptake assay)
T1 sequence (P48067 1-706): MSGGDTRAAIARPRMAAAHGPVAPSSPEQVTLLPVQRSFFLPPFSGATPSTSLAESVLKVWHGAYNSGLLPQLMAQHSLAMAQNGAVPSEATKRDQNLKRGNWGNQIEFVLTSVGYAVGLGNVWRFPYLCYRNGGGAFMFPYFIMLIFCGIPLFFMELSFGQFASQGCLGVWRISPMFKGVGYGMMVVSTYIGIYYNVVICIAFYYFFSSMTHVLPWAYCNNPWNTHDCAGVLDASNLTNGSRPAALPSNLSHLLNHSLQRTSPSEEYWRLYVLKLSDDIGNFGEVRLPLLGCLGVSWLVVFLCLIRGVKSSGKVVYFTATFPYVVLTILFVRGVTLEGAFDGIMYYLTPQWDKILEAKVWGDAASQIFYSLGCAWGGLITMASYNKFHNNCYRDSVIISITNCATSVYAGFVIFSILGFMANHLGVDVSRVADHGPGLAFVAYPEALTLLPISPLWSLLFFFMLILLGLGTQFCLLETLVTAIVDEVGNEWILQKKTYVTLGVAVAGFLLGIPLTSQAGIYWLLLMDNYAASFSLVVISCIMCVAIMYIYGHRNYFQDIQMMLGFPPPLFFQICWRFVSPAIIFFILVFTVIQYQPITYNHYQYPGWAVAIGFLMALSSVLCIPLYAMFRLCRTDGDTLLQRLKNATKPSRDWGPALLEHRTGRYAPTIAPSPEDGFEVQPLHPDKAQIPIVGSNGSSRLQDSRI
Assay: Radioligand binding assay using recombinant CHO cell membranes expressing human GlyT1
Details: radioligand binding to human GlyT1c transporter-expressing membranes
From the text: 2. Radioligand binding assays using recombinant CHO cell membranes expressing human GlyT1: […]

Ki [µM] | Compound
≤ 1 | Cn1cnc(S(=O)(=O)N2C[C@@H](Nc3ccc(Cl)cc3)[C@H](c3ccccc3)C2)c1 (relative stereo) [Example 75, trans-N-(4-chlorophenyl)-1-[(1-methyl-1H-imidazol-4-yl)sulfonyl]-4-phenylpyrrolidin-3-amine]
≤ 10 | Cn1cnc(S(=O)(=O)N2C[C@@H](Nc3cc(C#N)ccc3F)[C@H](c3ccccc3)C2)c1 (relative stereo) [Example 76, 4-fluoro-3-({trans-1-[(1-methyl-1H-imidazol-4-yl)sulfonyl]-4-phenylpyrrolidin-3-yl}amino)benzonitrile]
≤ 1 | Cn1cnc(S(=O)(=O)N2C[C@@H](Nc3cc(F)cc(C#N)c3)[C@H](c3ccccc3)C2)c1 (relative stereo) [Example 78, 3-fluoro-5-({trans-1-[(1-methyl-1H-imidazol-4-yl)sulfonyl]-4-phenylpyrrolidin-3-yl}amino)benzonitrile]
≤ 1 | Cn1cnc(S(=O)(=O)N2C[C@@H](Nc3ccc(Cl)c(C#N)c3)[C@H](c3ccccc3)C2)c1 (relative stereo) [Example 79, 2-chloro-5-({trans-1-[(1-methyl-1H-imidazol-4-yl)sulfonyl]-4-phenylpyrrolidin-3-yl}amino)benzonitrile]
≤ 1 | Cn1cnc(S(=O)(=O)N2C[C@@H](Nc3cc(Cl)cc(C#N)c3)[C@H](c3ccccc3)C2)c1 (relative stereo) [Example 80, 3-chloro-5-({trans-1-[(1-methyl-1H-imidazol-4-yl)sulfonyl]-4-phenylpyrrolidin-3-yl}amino)benzonitrile]
≤ 10 | Cn1cnc(S(=O)(=O)N2C[C@@H](Nc3cc(C#N)ccc3Cl)[C@H](c3ccccc3)C2)c1 (relative stereo) [Example 81, 4-chloro-3-({trans-1-[(1-methyl-1H-imidazol-4-yl)sulfonyl]-4-phenylpyrrolidin-3-yl}amino)benzonitrile]
≤ 10 | Cc1ccc(C#N)cc1N[C@@H]1CN(S(=O)(=O)c2cn(C)cn2)C[C@H]1c1ccccc1 (relative stereo) [Example 82, 4-methyl-3-({trans-1-[(1-methyl-1H-imidazol-4-yl)sulfonyl]-4-phenylpyrrolidin-3-yl}amino)benzonitrile]
≤ 1 | Cc1c(C#N)cccc1N[C@@H]1CN(S(=O)(=O)c2cn(C)cn2)C[C@H]1c1ccccc1 (relative stereo) [Example 83, 2-methyl-3-({trans-1-[(1-methyl-1H-imidazol-4-yl)sulfonyl]-4-phenylpyrrolidin-3-yl}amino)benzonitrile]
≤ 1 | Cc1ccccc1N[C@@H]1CN(S(=O)(=O)c2cn(C)cn2)C[C@H]1c1ccc(F)cc1 (relative stereo) [Example 84, trans-4-(4-fluorophenyl)-1-[(1-methyl-1H-imidazol-4-yl)sulfonyl]-N-(2-methylphenyl)pyrrolidin-3-amine]
≤ 0.01 | Cc1cccc(N[C@@H]2CN(S(=O)(=O)c3cn(C)cn3)C[C@H]2c2ccc(F)cc2)c1 (relative stereo) [Example 85, trans-4-(4-fluorophenyl)-1-[(1-methyl-1H-imidazol-4-yl)sulfonyl]-N-(3-methylphenyl)pyrrolidin-3-amine]
≤ 1 | Cc1ccc(N[C@@H]2CN(S(=O)(=O)c3cn(C)cn3)C[C@H]2c2ccc(F)cc2)cc1 (relative stereo) [Example 86, trans-4-(4-fluorophenyl)-1-[(1-methyl-1H-imidazol-4-yl)sulfonyl]-N-(4-methylphenyl)pyrrolidin-3-amine]

Compound | Ki [µM]
Cn1cnc(S(=O)(=O)N2C[C@@H](Nc3cccc(C#N)c3F)[C@H](c3ccccc3)C2)c1 (relative stereo) [Example 77, 2-fluoro-3-({trans-1-[(1-methyl-1H-imidazol-4-yl)sulfonyl]-4-phenylpyrrolidin-3-yl}amino)benzonitrile] | ≤ 1
